Assay results: article PMC4393083, “Antiviral Activity and Possible Mechanism of Action of Constituents Identified in Paeonia lactiflora Root toward Human Rhinoviruses” (PLoS ONE, 2015)
Like-named read-outs stand apart in the source and are kept apart here.

Key:
[1] = Cytotoxicity MTT assay in HeLa cells; assay type: cell-based; conditions: human, tetrazolium assay, read-out: CC50 (95% CL)
Method: (§1) The cytotoxicity of the test materials to two human cell lines was evaluated using an MTT assay described previously by Morgan. In brief, a 10× stock solution of MTT was prepared by adding 5 mg/mL MTT in phosphate-buffered saline (PBS) (pH 7.4). The stock solution was sterile-filtered and stored at −20°C. HeLa and MRC5 cells were seeded onto 96-well culture plates at a density of 3 × 10^4 cells per well for 1 day. The culture medium was removed and the plates with monolayer cells were replaced with media containing several different concentrations (1–1000 μg/mL) of the test materials in dimethylsulfoxide (DMSO). After incubation at 37°C and 5% CO2 for 2 days, the culture plates were then washed once with 200 μL PBS. A volume of 100 μL medium containing 0.05% MTT were added to each well and then incubated for 4 h at the same condition. After then, MTT solution was removed and 150 μL DMSO was added to each well. Finally, the plate was shaken for 15 min to dissolve the purple formazan crystals that had formed. Absorbance was read at 560 nm by using a VersaMax microplate reader (Molecular Devices, Sunnyvale, CA) with a reference absorbance at 670 nm.
(§2) The CC50 and IC50 values were determined using GraphPad Prism 5 software program (GraphPad Software, La Jolla, CA). […] The selectivity index (SI) was determined as the ratio of CC50 to IC50 [23]. All data represent the mean ± SD of duplicate or triplicate samples of three independent experiments. […] Data from two groups were analyzed by a Student’s t-test, and multiple groups were analyzed by a one-way analysis of variance and Bonferroni multiple comparison post-test.

HRV-4 [2] = assay: Cytopathic effect inhibition assay (MTT), HRV-4 in MRC5 cells; assay type: cell-based, human rhinovirus; conditions: read-out: IC50 (95% CL) HRV-4
Method: (§3) Monolayers of HeLa and MRC5 cells were seeded onto a 96-well culture plate as stated previously. Subsequently, 90 μL media containing several different concentrations (1–1000 μg/mL) of each test material in DMSO was put into the wells, and then 10 μL of 10×TCID50 of the virus stock was added to produce an appropriate CPE within 2 days after infection. Ribavirin served as a reference control and was similarly prepared. Negative controls consisted of the DMSO solution. Viral inhibition rate (VIR) (%) was calculated according to the formula [21], VIR = (A tV—A cV)/(A cd—A cV) × 100, where A tV is the optical density measured with a given concentration of the test compound in HRV infected cells; A cV is the optical density measured for the control untreated HRV infected cells; A cd is the optical density measured for the control untreated HRV uninfected cells.
(§4) The CC50 and IC50 values were determined using GraphPad Prism 5 software program (GraphPad Software, La Jolla, CA). […] The selectivity index (SI) was determined as the ratio of CC50 to IC50 [23]. All data represent the mean ± SD of duplicate or triplicate samples of three independent experiments. Statistical analyses were carried out using SAS 9.13 program (SAS Institute, Cary, NC). Data from two groups were analyzed by a Student’s t-test, and multiple groups were analyzed by a one-way analysis of variance and Bonferroni multiple comparison post-test.

HRV-4 [3] = assay: Virus titration assay, HRV-4 in MRC5 cultures; assay type: cell-based, human rhinovirus; conditions: PGG 20 μg/mL, PA 100 μg/mL, ribavirin 100 μg/mL; for Log (TCID50/mL) ± SE HRV-4: infected MRC5 cultures, 48 h, infected untreated control 3.81; for Reduction of virus replication (Log (TCID50/mL)) ± SE HRV-4: vs infected untreated control
Method: Virus titers in infected MRC-5 cultures treated with PA and PGG were measured as TCID50 using MTT-based titration method. In brief, MRC5 cells were seeded at 10^5 cells/mL in a 6-well plate. After 24 h, the cell monolayers were treated with 100 μg/mL PA or 20 μg/mL PGG and infected with HRV-2 or HRV-4 in a concentration of 10×TCID50/mL. Uninfected untreated and infected untreated cultures were included in the assay. The 100 μg/mL of ribavirin was used as a reference control. After 48 h incubation at 37°C, the cultures were frozen and thawed at −80°C/25°C. Cell debris was removed by centrifugation (2000 rpm) and the virus supernatants were collected. Virus titration was then performed in HeLa cell cultures. Initially, a 1:10 dilution of each supernatant was prepared followed by 10 serial 2-fold-dilutions, and added to HeLa cell monolayers. After 48 h, cell mortality was measured using an MTT assay stated previously. Graphs were built by plotting dead cell percentages toward virus dilution factors of each virus supernatant. The 50% infectivity point was calculated through a linear regression analysis of the curve.

HRV-4 [4] = assay: Cytopathic effect inhibition assay (MTT), HRV-4 in HeLa cells; assay type: cell-based, human rhinovirus; conditions: read-out: IC50 (95% CL) HRV-4
Method: Extraction procedures of air-dried root of P. lactiflora were performed as described previously by Ngan et al.. For isolation of active principles, viral CPE inhibition assay toward HRV-4 in HeLa cell was used. […]. Column fractions were monitored by TLC on silica gel plates developed with chloroform and methanol (7:3 by volume) mobile phase. Fractions with similar R f values on the TLC plates were pooled. Active fractions 4 to 5 (EI, 2.44 g) and 7 (EII, 0.569 g) were obtained. The active fraction EI was rechromatographed on a silica gel column by elution with chloroform and methanol (70:30 by volume) to give nine fractions (each about 450 mL). A preparative HPLC was used for separation of constituents from the active fractions 3 to 5 (0.176 g). The column was a 4.6 mm i.d. × 150 mm Eclipse XDB-C18 (Agilent, Santa Clara, CA) using a mobile phase of methanol and water (3:7 by volume) at a flow rate of 0.5 mL/min. Chromatographic separations were monitored using a UV detector at 260 nm. […]. The three antiviral principles were characterized as paeonol (PA) (1), gallic acid (GA) (2), and 1,2,3,4,6-penta-O-galloyl-β-D-glucopyranose (PGG) (3) (Fig 1) by spectroscopic analyses, including MS and NMR. PA (1): compound 1 was isolated as an antibacterial principle from P. lactiflora root in our previous work, and the spectral data of compound 1 was largely identical to the published data. GA (2) was identified on the basis of the following evidence: white powder. UV (MeOH): λmax nm = 260. FT-IR: v max cm^–1 = 3491–3063 (OH stretch), 1608 (aromatic C = C). […] The interpretations of proton and carbon signals of compound 2 were largely consistent with those of Sakar et al.. PGG (3): compound 3 was isolated as an antibacterial principle from P. lactiflora root in our previous work, and the spectral data of compound 3 was largely identical to the published data.
as §3, §4

HRV-2 = assay: Cytopathic effect inhibition assay (MTT), HRV-2 in MRC5 cells; assay type: cell-based, human rhinovirus; conditions: read-out: IC50 (95% CL) HRV-2
Method: as §3, §4

[5] = Cytotoxicity MTT assay in MRC5 cells; assay type: cell-based, human; conditions: human, tetrazolium assay, read-out: CC50 (95% CL)
Method: as §1, §2

[6] = Human rhinovirus sp., HRV4, MRC5, HRV-4 in MRC5 cells
[7] = Human rhinovirus sp., HRV4, HeLa
[8] = Rhinovirus A, HRV2, MRC5, HRV-2 in MRC5 cells

Row | Compound | CC50 at 2 days [1] | IC50 (HRV-4 [2]; HRV-4 in MRC5 cells) | IC50 (HRV-4 [2]; [6]) | reduction of the HRV-4 titer (HRV-4 [3]) | Log (TCID50/mL) ± SE HRV-4 (HRV-4 [3]) | Reduction of virus replication (Log (TCID50/mL)) ± SE HRV-4 (HRV-4 [3]) | IC50 (HRV-4 [4]; [7]) | IC50 (HRV-4 [4]) | IC50 (HRV-2; HRV-2 in MRC5 cells) | IC50 (HRV-2; [8]) | CC50 at 2 days [5]
1 | COc1ccc(C(C)=O)c(O)c1 [PA, paeonol] | 3160 µM | 492 µM | 492 µM | 27.6% | 2.76 ± 0.024 b Log (TCID50/mL) | 1.05 ± 0.023 Log (TCID50/mL) | 514 µM | 514 µM | 503 µM | 503 µM | 3140 µM
2 | NC(=O)c1ncn([C@@H]2O[C@H](CO)[C@@H](O)[C@H]2O)n1 [Ribavirin, reference compound] | 2340 µM | – | 312 µM | 36.0% | 2.44 ± 0.024 a Log (TCID50/mL) | 1.37 ± 0.023 Log (TCID50/mL) | 324 µM | 324 µM | 240 µM | 240 µM | 2230 µM
3 | O=C(OC[C@H]1O[C@@H](OC(=O)c2cc(O)c(O)c(O)c2)[C@H](OC(=O)c2cc(O)c(O)c(O)c2)[C@@H](OC(=O)c2cc(O)c(O)c(O)c2)[C@@H]1OC(=O)c1cc(O)c(O)c(O)c1)c1cc(O)c(O)c(O)c1 [PGG, 1,2,3,4,6-penta-O-galloyl-β-D-glucopyranose] | 109 µM | 17.3 µM | 17.3 µM | 20.7% | 3.04 ± 0.038 c Log (TCID50/mL) | 0.79 ± 0.038 Log (TCID50/mL) | 14.4 µM | 14.4 µM | 17.9 µM | 17.9 µM | 108 µM
